pKi: −log10 of the molar value. *1 amine or outer side, *2 acyl side, *3 side chain or, on linkers, in order; H or OH if unused. Where a SMILES comes first, the peptide text is derived from it. Side-chain parts run from the residue outwards. [ ]: non-standard residue; d: D form. The star is where a group is joined. C20 diacid = O=C(O)CCCCCCCCCCCCCCCCCCC(=O)*; αMePhe(2-F) = C[C@](N)(Cc1ccccc1F)C(=O)O; γGlu = O=C(O)[C@H](CCC(=O)[*:2])N[*:1]; αMeF = C[C@](N)(Cc1ccccc1)C(=O)O; 4Pal = N[C@@H](Cc1ccncc1)C(=O)O; αMeL = CC(C)C[C@](C)(N)C(=O)O; Iva = CC[C@](C)(N)C(=O)O; AEEA = NCCOCCOCC(=O)O; Aib = CC(C)(N)C(=O)O
How the values were obtained:
[1] = target: T1, human glucose-dependent insulinotropic peptide receptor (GIPR) (Homo sapiens, UniProt P48546); assay: cAMP functional assay (HTRF) in HEK293 cells in presence of 0.1% casein; type: cell-based; settings: HEK293 cells expressing human GIPR, geometric mean, read-out: hGIPR cAMP Rel EC50 nM (SEM, n)
T1 construct: expressed in transfected cells; host or cells: HEK293
T1 sequence (P48546 22-466): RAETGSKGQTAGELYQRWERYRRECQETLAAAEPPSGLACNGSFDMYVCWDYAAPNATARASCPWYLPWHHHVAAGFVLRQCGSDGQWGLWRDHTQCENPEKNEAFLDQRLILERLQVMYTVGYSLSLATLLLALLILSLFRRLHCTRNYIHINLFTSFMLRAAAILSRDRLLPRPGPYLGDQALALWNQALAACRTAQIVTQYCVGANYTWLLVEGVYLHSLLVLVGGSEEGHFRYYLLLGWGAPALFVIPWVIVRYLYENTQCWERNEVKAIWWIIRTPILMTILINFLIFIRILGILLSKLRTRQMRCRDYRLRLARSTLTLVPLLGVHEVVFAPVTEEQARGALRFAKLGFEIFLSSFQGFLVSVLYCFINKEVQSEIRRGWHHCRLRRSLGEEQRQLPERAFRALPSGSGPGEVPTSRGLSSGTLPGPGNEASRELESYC

human GIPR = target: T2, human GIPR (Homo sapiens, UniProt P48546); assay: [125I]-GIP binding, SPA with WGA beads, 0.1% bacitracin; settings: geometric mean, read-out: hGIPR Ki
T2 construct: expressed in transfected cells; crude membranes
T2 sequence (P48546 22-466): T1 sequence (P48546 22-466)
Procedure, shortened: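 Ki values are geometric means (SEM, n independent days), derived from four-parameter nonlinear regression of IC50. Membranes came from hGIPR-expressing CHO cells.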

| Structure (SMILES) | EC50 [1] [nM] | pKi (human GIPR) |
| --- | --- | --- |
| CC[C@H](C)[C@H](NC(=O)[C@H](CO)NC(=O)[C@H](Cc1ccc(O)cc1)NC(=O)[C@H](CC(=O)O)NC(=O)[C@H](CO)NC(=O)[C@@H](NC(=O)[C@](C)(Cc1ccccc1)NC(=O)[C@@H](NC(=O)CNC(=O)[C@H](CCC(=O)O)NC(=O)C(C)(C)NC(=O)[C@@H](N)Cc1ccc(O)cc1)[C@@H](C)O)[C@@H](C)CC)C(=O)N[C@@](C)(CC(C)C)C(=O)N[C@@H](CC(C)C)C(=O)N[C@@H](CC(=O)O)C(=O)N[C@@H](CCCCN)C(=O)N[C@@H](CCCCNC(=O)COCCOCCNC(=O)COCCOCCNC(=O)CC[C@H](NC(=O)CCCCCCCCCCCCCCCCCCC(=O)O)C(=O)O)C(=O)N[C@@H](Cc1c[nH]cn1)C(=O)N[C@@H](CCC(N)=O)C(=O)NC(C)(C)C(=O)N[C@@H](CC(=O)O)C(=O)N[C@@H](Cc1ccccc1)C(=O)N[C@H](C(=O)N[C@@H](CCC(=O)O)C(=O)N[C@@H](Cc1ccncc1)C(=O)N[C@@H](CC(C)C)C(=O)N[C@@H](CC(C)C)C(=O)N[C@@H](C)C(=O)NCC(=O)NCC(=O)N1CCC[C@H]1C(=O)N[C@@H](CO)C(=O)N[C@@H](CO)C(=O)NCC(=O)N[C@@H](C)C(=O)N1CCC[C@H]1C(=O)N1CCC[C@H]1C(=O)N1CCC[C@H]1C(=O)N[C@@H](CO)C(N)=O)C(C)C [Example 50] (H-Y[Aib]EGT[αMeF]ISDYSI[αMeL]LDKK([AEEA-AEEA-γGlu-C20 diacid])HQ[Aib]DFVE[4Pal]LLAGGPSSGAPPPS-NH2) | 0.0212 | 10.30 |
| CC[C@H](C)[C@H](NC(=O)[C@H](CO)NC(=O)[C@H](Cc1ccc(O)cc1)NC(=O)[C@H](CC(=O)O)NC(=O)[C@H](CO)NC(=O)[C@@H](NC(=O)[C@](C)(Cc1ccccc1F)NC(=O)[C@@H](NC(=O)CNC(=O)[C@H](CCC(=O)O)NC(=O)C(C)(C)NC(=O)[C@@H](N)Cc1ccc(O)cc1)[C@@H](C)O)[C@@H](C)CC)C(=O)N[C@@](C)(CC(C)C)C(=O)N[C@@H](CC(C)C)C(=O)N[C@@H](CC(=O)O)C(=O)N[C@@H](CCCCN)C(=O)N[C@@H](CCCCNC(=O)COCCOCCNC(=O)COCCOCCNC(=O)CC[C@H](NC(=O)CCCCCCCCCCCCCCCCCCC(=O)O)C(=O)O)C(=O)N[C@@H](Cc1c[nH]cn1)C(=O)N[C@@H](CCC(N)=O)C(=O)NC(C)(C)C(=O)N[C@@H](CC(=O)O)C(=O)N[C@@H](Cc1ccccc1)C(=O)N[C@H](C(=O)N[C@@H](CCC(=O)O)C(=O)N[C@@H](Cc1ccncc1)C(=O)N[C@@H](CC(C)C)C(=O)N[C@@H](CC(C)C)C(=O)N[C@@H](C)C(=O)NCC(=O)NCC(=O)N1CCC[C@H]1C(=O)N[C@@H](CO)C(=O)N[C@@H](CO)C(=O)NCC(=O)N[C@@H](C)C(=O)N1CCC[C@H]1C(=O)N1CCC[C@H]1C(=O)N1CCC[C@H]1C(=O)N[C@@H](CO)C(N)=O)C(C)C [Example 51] (H-Y[Aib]EGT[αMePhe(2-F)]ISDYSI[αMeL]LDKK([AEEA-AEEA-γGlu-C20 diacid])HQ[Aib]DFVE[4Pal]LLAGGPSSGAPPPS-NH2) | 0.0166 | 10.41 |
| CC[C@H](C)[C@H](NC(=O)[C@H](Cc1ccccc1)NC(=O)[C@@H](NC(=O)CNC(=O)[C@H](CCC(=O)O)NC(=O)C(C)(C)NC(=O)[C@@H](N)Cc1ccc(O)cc1)[C@@H](C)O)C(=O)N[C@@H](CO)C(=O)N[C@@H](CC(=O)O)C(=O)N[C@@H](Cc1ccc(O)cc1)C(=O)N[C@@H](CO)C(=O)N[C@H](C(=O)N[C@@](C)(CC(C)C)C(=O)N[C@@H](CC(C)C)C(=O)N[C@@H](CC(=O)O)C(=O)N[C@@H](CCCCN)C(=O)N[C@@H](CCCCNC(=O)COCCOCCNC(=O)COCCOCCNC(=O)CC[C@H](NC(=O)CCCCCCCCCCCCCCCCCCC(=O)O)C(=O)O)C(=O)N[C@@H](Cc1c[nH]cn1)C(=O)N[C@@H](CCC(N)=O)C(=O)NC(C)(C)C(=O)N[C@@H](CCC(=O)O)C(=O)N[C@@H](Cc1ccccc1)C(=O)N[C@H](C(=O)N[C@@H](CCC(=O)O)C(=O)N[C@@H](Cc1ccncc1)C(=O)N[C@@H](CC(C)C)C(=O)N[C@@H](CC(C)C)C(=O)N[C@@H](C)C(=O)NCC(=O)NCC(=O)N1CCC[C@H]1C(=O)N[C@@H](CO)C(=O)N[C@@H](CO)C(=O)NCC(=O)N[C@@H](C)C(=O)N1CCC[C@H]1C(=O)N1CCC[C@H]1C(=O)N1CCC[C@H]1C(=O)N[C@@H](CO)C(N)=O)C(C)C)[C@@H](C)CC [Example 52] | 0.0194 | 10.43 |
| CC[C@H](C)[C@H](NC(=O)[C@H](Cc1ccccc1)NC(=O)[C@@H](NC(=O)CNC(=O)[C@H](CCC(=O)O)NC(=O)C(C)(C)NC(=O)[C@@H](N)Cc1ccc(O)cc1)[C@@H](C)O)C(=O)N[C@@H](CO)C(=O)N[C@@H](CC(=O)O)C(=O)N[C@@H](Cc1ccc(O)cc1)C(=O)N[C@@H](CO)C(=O)N[C@H](C(=O)N[C@@](C)(CC(C)C)C(=O)N[C@@H](CC(C)C)C(=O)N[C@@H](CC(=O)O)C(=O)N[C@@H](CCCCN)C(=O)N[C@@H](CCCCNC(=O)COCCOCCNC(=O)COCCOCCNC(=O)CC[C@H](NC(=O)CCCCCCCCCCCCCCCCCCC(=O)O)C(=O)O)C(=O)N[C@@H](Cc1c[nH]cn1)C(=O)N[C@@H](CCC(N)=O)C(=O)NC(C)(C)C(=O)N[C@@H](CC(=O)O)C(=O)N[C@@H](Cc1ccccc1)C(=O)N[C@H](C(=O)N[C@@H](CCC(=O)O)C(=O)N[C@@H](Cc1ccc(O)cc1)C(=O)N[C@@H](CC(C)C)C(=O)N[C@@H](CC(C)C)C(=O)N[C@@H](C)C(=O)NCC(=O)NCC(=O)N1CCC[C@H]1C(=O)N[C@@H](CO)C(=O)N[C@@H](CO)C(=O)NCC(=O)N[C@@H](C)C(=O)N1CCC[C@H]1C(=O)N1CCC[C@H]1C(=O)N1CCC[C@H]1C(=O)N[C@@H](CO)C(N)=O)C(C)C)[C@@H](C)CC [Example 53] (H-Y[Aib]EGTFISDYSI[αMeL]LDKK([AEEA-AEEA-γGlu-C20 diacid])HQ[Aib]DFVEYLLAGGPSSGAPPPS-NH2) | 0.0194 | 10.74 |
| CC[C@H](C)[C@H](NC(=O)[C@H](Cc1ccccc1)NC(=O)[C@@H](NC(=O)CNC(=O)[C@H](CCC(=O)O)NC(=O)C(C)(C)NC(=O)[C@@H](N)Cc1ccc(O)cc1)[C@@H](C)O)C(=O)N[C@@H](CO)C(=O)N[C@@H](CC(=O)O)C(=O)N[C@@H](Cc1ccc(O)cc1)C(=O)N[C@@H](CO)C(=O)N[C@H](C(=O)N[C@@](C)(CC(C)C)C(=O)N[C@@H](CC(C)C)C(=O)N[C@@H](CC(=O)O)C(=O)N[C@@H](CCCCN)C(=O)N[C@@H](CCCCNC(=O)COCCOCCNC(=O)COCCOCCNC(=O)CC[C@H](NC(=O)CCCCCCCCCCCCCCCCCCC(=O)O)C(=O)O)C(=O)N[C@@H](Cc1c[nH]cn1)C(=O)N[C@@H](CCC(N)=O)C(=O)NC(C)(C)C(=O)N[C@@H](CC(=O)O)C(=O)N[C@@H](Cc1ccccc1)C(=O)N[C@H](C(=O)N[C@@H](CCC(=O)O)C(=O)N[C@@H](Cc1c[nH]c2ccccc12)C(=O)N[C@@H](CC(C)C)C(=O)N[C@@H](CC(C)C)C(=O)N[C@@H](C)C(=O)NCC(=O)NCC(=O)N1CCC[C@H]1C(=O)N[C@@H](CO)C(=O)N[C@@H](CO)C(=O)NCC(=O)N[C@@H](C)C(=O)N1CCC[C@H]1C(=O)N1CCC[C@H]1C(=O)N1CCC[C@H]1C(=O)N[C@@H](CO)C(N)=O)C(C)C)[C@@H](C)CC [Example 54] (H-Y[Aib]EGTFISDYSI[αMeL]LDKK([AEEA-AEEA-γGlu-C20 diacid])HQ[Aib]DFVEWLLAGGPSSGAPPPS-NH2) | 0.054 | 10.49 |
| CC[C@H](C)[C@H](NC(=O)[C@H](CO)NC(=O)[C@H](Cc1ccc(O)cc1)NC(=O)[C@H](CC(=O)O)NC(=O)[C@H](CO)NC(=O)[C@@H](NC(=O)[C@](C)(CC)NC(=O)[C@@H](NC(=O)CNC(=O)[C@H](CCC(=O)O)NC(=O)C(C)(C)NC(=O)[C@@H](N)Cc1ccc(O)cc1)[C@@H](C)O)[C@@H](C)CC)C(=O)N[C@@](C)(CC(C)C)C(=O)N[C@@H](CC(C)C)C(=O)N[C@@H](CC(=O)O)C(=O)N[C@@H](CCCCN)C(=O)N[C@@H](CCCCNC(=O)COCCOCCNC(=O)COCCOCCNC(=O)CC[C@H](NC(=O)CCCCCCCCCCCCCCCCCCC(=O)O)C(=O)O)C(=O)N[C@@H](Cc1c[nH]cn1)C(=O)N[C@@H](CCC(N)=O)C(=O)NC(C)(C)C(=O)N[C@@H](CC(=O)O)C(=O)N[C@@H](Cc1ccccc1)C(=O)N[C@H](C(=O)N[C@@H](CCC(=O)O)C(=O)N[C@@H](Cc1ccncc1)C(=O)N[C@@H](CC(C)C)C(=O)N[C@@H](CC(C)C)C(=O)N[C@@H](C)C(=O)NCC(=O)NCC(=O)N1CCC[C@H]1C(=O)N[C@@H](CO)C(=O)N[C@@H](CO)C(=O)NCC(=O)N[C@@H](C)C(=O)N1CCC[C@H]1C(=O)N1CCC[C@H]1C(=O)N1CCC[C@H]1C(=O)N[C@@H](CO)C(N)=O)C(C)C [Example 55] (H-Y[Aib]EGT[Iva]ISDYSI[αMeL]LDKK([AEEA-AEEA-γGlu-C20 diacid])HQ[Aib]DFVE[4Pal]LLAGGPSSGAPPPS-NH2) | 0.017 | 10.48 |

From patent publication US12723063B2, “GIPR-agonist compounds” (Eli Lilly and Company, priority 2019, dated 2026)
